Assay [1] relates to Jurkat cells. Nature of the assay: Cellular cytotoxicity assay using various apoptosis/caspase activity markers and protease indicators. In kind it is cell-based, human. Particulars: indicator used for read-out, E:T 5 to 1.
Assay [2] deals with EL4 cells. The assay can be described thus: Flow-cytometry fluorescence cellular cytotoxicity (FCC) assay, CTL killing of peptide-pulsed target cells. The assay is classed as cell-based, mouse.

For “Bis-(N-CBZ-aspartyl-glutamyl-valyl-aspartylamide) Rhodamine 110 [Bis-(N-CBZ-DEVD amide)R22120]”, the “% Killing” value was 48.0% in assay [1] (co-incubation 1 hr); “markedly lower than the other two protease indicators” in assay [1] (co-incubation 1 hr, listed as bis-(Z-DEVDamide)-Rhodamine 110); 75.4% in assay [1] (co-incubation 2 hr).

For the molecule “MT246-256: irrelevant control polyoma virus peptide middle T protein epitope (SNPTYSVM, SEQ ID NO:22) (Synthetic peptide substrate.)”, in assay [2], the “% of the target cells (CTO+) positive for DEVDase activity” value is “around 10%”.

B1: PE-labeled Annexin V: phycoerythrin labeled annexin V, cell surface marker of apoptosis (protein, UniProt P08758 2-320, looked up)
Annexin A5: AQVLRGTVTDFPGFDERADAETLRKAMKGLGTDEESILTLLTSRSNAQRQEISAAFKTLFGRDLLDDLKSELTGKFEKLIVALMKPSRLYDAYELKHALKGAGTNEKVLTEIIASRTPEELRAIKQVYEEEYGSSLEDDVVGDTSGYYQRMLVVLLQANRDPDAGIDEAQVEQDAQALFQAGELKWGTDEEKFITIFGTRSVSHLRKVFDKYMTISGFQIEETIDRETSGNLEQLLLAVVKSIRSIPAYLAETLYYAMKGAGTDDHTLIRVMVSRSEIDLFNIRKEFRKNFATSLYSMIKGDTSGDYKKALLLLCGEDD
modifications: phycoerythrin label
notes: phycoerythrin labeled annexin V, cell surface marker of apoptosis
B1: the “% Killing” value in assay [1] (co-incubation 1 hr) was found to be 65.6%; in assay [1] (co-incubation 1 hr, listed as phycoerythine (PE) labeled annexin V) it was 65.5%.

For the origin of these results see patent publication US20090263830A1, “VISUALIZATION AND QUANTITIATION OF CELLULAR CYTOTOXICITY USING CELL-PERMEABLE FLUOROGENIC PROTEASE SUBSTRATES AND CASPASE ACTIVITY INDICATOR MARKERS” (Oncoimmunin, Inc., priority 2002, published 2009).
